According to patent publication US11179438B1, “Chicken cathelicidins as a cancer therapy” (King Abdulaziz University, priority 2021, dated 2021):
Where two headings read alike, the source gives them in different places. Ends that are not written are not given here.

Experiments:
[1] = test system: breast (MCF-7) and colon cancer (HCT116) cell lines; format: cell-based, human; conditions: for survival rate / decline in the cell growth: 48 h; for survival rate: cell line not stated; for decline in the cell growth: 40 μg/ml, both cell lines; for growth: 72 h incubation, high concentration for cathelicidin-2 and -3, breast and colon cancer cell lines
Experimental: (§1) The breast (MCF-7) and colon cancer (HCT116) cell lines were purchased from the American Type Culture Collection (Manassas, Va., USA) and maintained at 37° C. in a 1:1 mixture of Dulbecco's modified Eagle's medium DMEM high glucose (4.5 g/L) supplemented with 10% FBS in Corning®T75 flasks containing 1.2 g/l sodium bicarbonate (Sigma-Aldrich, St. Louis, Mo., USA), 2.5 mM L-glutamine (Invitrogen Life Technologies), 15 mM HEPES, and 0.5 mM sodium pyruvate supplemented with 400 ng/ml hydrocortisone (Sigma-Aldrich) and 10% fetal bovine serum (PAA Laboratories, Pasching, Austria) in a humidity incubator with 5% CO2 and 95% air. The culture medium was refreshed every 2-3 days for a period of 5-7 days to allow for recovery from cryopreservation and for confluency to be reached. For cell subculturing, the cells were digested with 0.25% trypsin and 0.03% EDTA solution (Invitrogen Life Technologies). Upon reaching 90% confluency, cell numbers were counted. The density of cells was 5 λ103 cells/cm^2. After that, the MCF-7 cells were seeded into three 96 well plates and treated with three chicken cathelicidins peptides for three period of incubations (24 h-48 h-72 h) (Li et al., 2014).
(§2) To assess the altered cell viability, Cell Counting Kit-8 (CCK-8) assay (Dojindo Laboratories, Kumamoto, Japan) was performed. Briefly, the cells were seeded in 96-well plates at 5×10^3 cells/well containing 180 μl of medium and cultured for up to 72 h. At the end of each experiment, 5 μl of CCk-8 solution (5 mg/ml) was added into each well, and the cells were incubated for 2 h at 37° C. The optical density value was measured by using BioTek microplate reader (Dynatech Laboratories Inc., Chantilly, Va., USA) at 450 nm. The median inhibition concentration (IC50) values were calculated using the probity model, and the inhibition rate of cell proliferation was calculated as: inhibition rate (%)=1−A450 (test)/A450 (control)×100%. Data were calculated from three independent experiments, each performed in triplicate (Li et al., 2014).

[2] = test system: human colon cancer cell line (HCT116); test: Cell viability assay (CCK-8), HCT116; format: cell-based; conditions: 72 h
Experimental: as §1, §2

[3] = test system: breast cancer cells (MCF-7); test: Cell viability assay (CCK-8), MCF-7; format: cell-based, human; conditions: 72 h
Experimental: as §1, §2

[4] = test system: Caspase-7 gene; test: Expression of caspase-7 gene in MCF-7 cells (RT-PCR); format: cell-based, human
Experimental: (§3) Total RNA was isolated from MCF-7 cells after chicken cathelicidins treatment using EZ RNA Clean Up Plus DNase Kit (EZ BioResearch, St Louis, Mo., USA)) following the manufacturer's instructions. RT-PCR was performed by using 1 μg of total RNA samples in the Access RT-PCR System (Bioneer Corporation Co., Ltd, South Korea) under the following conditions: first-strand DNA was synthesized with 12 cycles at 37° C. for 10 sec, 48° C. for 4 min and 60° C. for 30 sec and finally, heat inactivation at 95° C. for 5 mins then denatured at 94° C. for 5 min for the first cycle but for 30 sec for the additional 35 cycles; annealing according to Table 2 for 30 sec and extension at 72° C. for 2 min; and a final extension at 72° C. for 10 min. The PCR products were then subjected to electrophoresis in a 1.2% agarose gel and stained with ethidium bromide.
(§4) For RT-qPCR, cDNA was synthesized by using 0.5 μg of total RNA with a SuperScriptIII® Cells Direct cDNA Synthesis kit (Bioneer, Inc, Daejeon, Republic of Korea). The levels of IL-18, cyclin D1, cyclin A1, caspase-3 and 7 mRNA were amplified in triplicate using the SYBR-Green® Real-time PCR master mix (Biotool LLC, Houston, Tex., USA) on a LightCycler®480 Real-Time PCR system (Roche, Basel, Switzerland). […] The relative levels of gene expression were quantified by using the comparative CT method of ^−ΔΔCt (Livak and Schmittgen, 2001).

[5] = test system: Caspase-3 gene; test: Expression of caspase-3 gene in MCF-7 cells (RT-PCR); format: cell-based, human
Experimental: as §3, §4

[6] = moderate concentration (20 μg/ml)

Row | Molecule | survival rate ([1]; low concentration (10 μg/ml)) [%] | survival rate ([1]; moderate concentration (printed 10 μg/ml)) [%] | development rate ([2]; low concentration) [%] | development rate [2, 6] [%] | decline in the cell growth [1] | growth [1] [%] | development rate ([3]; low concentration) [%] | development rate [3, 6] [%] | caspase-7 gene expression relative to untreated cells [4] | caspase-3 gene expression relative to untreated cells [5]
1 | CC[C@H](C)[C@H](NC(=O)[C@H](CCCCN)NC(=O)[C@H](CCC(=O)O)NC(=O)[C@H](CCCCN)NC(=O)[C@H](CO)NC(=O)[C@H](CCCCN)NC(=O)[C@H](CCCNC(=N)N)NC(=O)[C@H](Cc1ccccc1)NC(=O)[C@H](Cc1ccccc1)NC(=O)[C@H](CC(=O)O)NC(=O)CNC(=O)[C@H](CC(C)C)NC(=O)[C@@H](N)CC(C)C)C(=O)NCC(=O)N[C@@H](CCCCN)C(=O)N[C@@H](CCC(=O)O)C(=O)N[C@@H](Cc1ccccc1)C(=O)N[C@@H](CCCCN)C(=O)N[C@@H](CCCNC(=N)N)C(=O)N[C@H](C(=O)N[C@H](C(=O)N[C@@H](CCC(N)=O)C(=O)N[C@@H](CCCNC(=N)N)C(=O)N[C@H](C(=O)N[C@@H](CCCCN)C(=O)N[C@@H](CC(=O)O)C(=O)N[C@@H](Cc1ccccc1)C(=O)N[C@@H](CC(C)C)C(=O)N[C@@H](CCCNC(=N)N)C(=O)N[C@@H](CC(N)=O)C(=O)N[C@@H](CC(C)C)C(=O)N[C@H](C(=O)N1CCC[C@H]1C(=O)N[C@@H](CCCNC(=N)N)C(=O)N[C@H](C(=O)N[C@@H](CCC(=O)O)C(=O)N[C@@H](CO)C(=O)O)[C@@H](C)O)C(C)C)[C@@H](C)CC)C(C)C)[C@@H](C)CC [Cathelicidin-1] | 25 | 12 |  |  |  |  |  |  |  | 
2 | RFGRFLRKIRRFRPKVTITIQGSARF [Cathelicidin-2] |  |  | 61.3 | 24 | 10% | 7 | 72 | 44 | two-fold | two times greater
3 | RVKRFWPLVPVAINTVAAGINLYKAIRRK [Cathelicidin-3] |  |  | 65 | 43.5 | about 7% | 16 | 73 | 73 | two-fold | two times greater
